Results published in US20040086498A9, “Cancer therapy” (priority 1999, published 2004).

How the values were obtained:
EL-4 target cells = test: Measurement of anti-tumour CTL activity of splenocytes from treated mice; format: cell-based; conditions: 21 days following gene transfer; combinations versus B7.1 monotherapy
Method: Measurement of the Generation of Anti-Tumour CTL. Splenocytes were harvested 21, and 42 days following initial gene transfer, and 22 days following a parental tumour challenge. They were incubated at 37° C. with EL-4 target cells in graded E:T ratios in 96-well round-bottom plates. After a 4-hour incubation, 50 μl of supernatant was collected, and lysis was measured using the Cyto Tox 96 Assay Kit (Promega, Madison, Wis., USA). Background controls for non-specific target and effector cell lysis were included. After background subtraction, percentage of cell lysis was calculated using the formula: 100×(experimental-spontaneous effector-target spontaneous target/maximum target-spontaneous target).

heat shock protein 70 = test: Immunohistology of hsp70 expression in tumours; format: in vivo, mice; conditions: 7 days following administration
Method: Immunohistology. Tumours were excised on the seventh day following administration of therapeutic agents and controls, immediately frozen in dry ice, stored at −70° C. in isopentane, and sections of 10 μm thickness prepared. Sections were mounted on poly L-lysine-coated slides, and endogenous peroxidases blocked by incubating slides for 30 min in 0.3% H2O2 in methanol. Sections were stained with mouse anti-Hsp70 mAb (SPA-810 antibody; StressGen Biotechnologies Corp., Victoria, Canada) using a mouse-on-mouse immunodetection ABC Elite peroxidase kit (Vector Laboratories, Burlingame, Calif., USA). They were developed with SIGMA FAST DAB (3,3′-diaminobenzidine tetrahydrochloride) with metal enhancer CoCl2 tablets, and counterstained with haematoxylin and eosin. As a control, the primary antibody was substituted with rat IgG (Sigma, USA).

EL-4 tumours = test: Treatment of large established EL-4 tumours with CAM gene transfer, DMXAA/FAA or timed combination; format: in vivo, C57BL/6 mice; conditions: large EL-4 tumours 0.6-0.8 cm; systemic (i.p.) optimal dose monotherapy; over a period of 3 weeks
Method: Female C57BL/6 mice, 6-9 weeks old, were obtained from the Animal Resource Unit, School of Medicine and Health Science, University of Auckland, Auckland. The EL-4 thymic lymphoma and mouse Lewis lung carcinoma cells (LLC) (H-2b) were purchased from the American Type Culture Collection (Rockville, Md). These cell lines were cultured in vitro at 37° C. in DMEM medium (Gibco BRL), supplemented with 10% foetal calf serum, 50 U/ml penicillin/streptomycin, 2 mM L-glutamine, 1 mM pyruvate.
Experimental Tumour Model.
Administration FAA and DMXAA Analogues. FAA was gifted from the Department of Health & Human Services, Drug Synthesis & Chemistry laboratory, National Cancer Institute, Bethesda, USA. The sodium salt of DMXAA was synthesized in the Auckland Cancer Society Research Centre, School of Medicine and Health Science, University of Auckland. Solutions of FAA and DMXAA in 5% (w/v) sodium bicarbonate and water, respectively, were prepared fresh for each experiment and protected from light. FAA and DMXAA were injected i.p. at 300 mg/Kg and 25 mg/Kg of body weight in a volume of 0.01 ml/g body weight, respectively.
Gene Transfer of B7.1. […]

EL-4 tumour sections = test: In situ detection of apoptotic and necrotic cells (TUNEL / propidium iodide); format: in vivo, mice; conditions: tumour sections 7, 14, 21 days after treatment; TUNEL and PI
Method: In Situ Detection of Apoptotic Cells. Tumours were excised and immediately frozen in dry ice, stored at −70° C., and serial sections of 6 μm thickness prepared. TUNEL staining was performed using an In Situ apoptosis detection kit from Boehringer Mannheim, Germany. Briefly, frozen sections were fixed with paraformaldehyde solution (4% in PBS, pH 7.4), and permeabilized with a solution containing 0.1% Triton X-100 and 0.1% sodium citrate. After washing they were incubated with 20 μl TUNEL reagent for 60 min at 37° C., and examined by fluorescence microscopy. Some slides were counterstained with propidium iodide (PI; Sigma, Calif., USA) to distinguish necrotic cells from those undergoing apoptosis. Adjacent sections were counterstained with haematoxylin and eosin and mounted. The total number of apoptotic or necrotic cells were counted. The apototic index (AI) or necrotic index (NI) was calculated as follows: AI or NI=number of apoptotic or necrotic cells×100/total number of nucleated cells.

established EL-4 tumours = test: Adoptive transfer of anti-tumour splenocytes from treated mice; format: in vivo; conditions: 2×10^8 splenocytes from treated mice; recipients with EL-4 tumours up to 0.8 cm
Method: Adoptive Transfer of Anti-Tumour CTL. Adoptive transfer of anti-tumour splenocytes was as described previously (Kanwar et al, 1999). Briefly, splenocytes obtained from mice 21 days following therapy were resuspended in Hank's balanced salt solution containing 1% FCS, and stimulated with 5 μg/ml PHA and 100 U/ml recombinant mouse IL-2 for 4 to 5 days. Animals bearing tumours 0.6 cm in diameter received both intratumoral and i.p. injections of 2×10^8 cultured splenocytes.

| Compound | anti-tumour CTL activity of splenocytes (EL-4 target cells) | hsp70 expression in tumours (heat shock protein 70) | tumour diameter to which tumours shrank (EL-4 tumours) | apoptotic versus necrotic tumour cells (EL-4 tumour sections) | anti-tumour effect of adoptively transferred splenocytes (established EL-4 tumours) |
| --- | --- | --- | --- | --- | --- |
| Cc1ccc2c(=O)c3cccc(CC(=O)O)c3oc2c1C [DMXAA, 5,6-dimethylxanthenone-4-acetic acid] | very poor effectors | consistently found upregulated on tumour cells either surrounding or within the vicinity of blood vessels | 0.1-0.2 cm | predominance of necrotic cells | no detectable anti-tumour activity |
| flavone acetic acid [FAA] | very poor effectors | – | 0.2-0.4 cm | – | – |
